Assay results published in patent US8986696B2, “Trans-capsular administration of p38 map kinase inhibitors into orthopedic joints” (DePuy Mitek, Inc., priority 2007, dated 2015).
Like-named read-outs stand apart in the source and are kept apart here.

Experiments:
[1] = tested on: rabbit anterior cruciate ligament transection (ACLT) model of osteoarthritis; assay: ACLT model, p38 MAP kinase inhibitors (Example VII); type: in vivo; parameters: key to Clinical Scoring - Total Score, Mean / Clinical Scoring - Trochlear Groove Effects, Mean / Clinical Scoring - All Tibial Plateau Effects, Mean / Clinical Scoring - All Cartilage Effects, Mean / Clinical Scoring - All Condylar Effects, Mean: gross joint damage score; higher = more damage; conditions: for All Condylar Effects: at the low dose; for Total Score / All Cartilage Effects: both doses; for All Cartilage Effects: compared to the non-injected control group; for lateral femoral condyle surface erosion: high and low dose
Experimental: New Zealand white rabbits (male, six to eight pounds) were anesthetized with ketamine (17 mg/kg) and xylazine (2.5 mg/kg). Supplementation was given during surgery, if needed, with an additional intramuscular injection of ketamine (35 mg/kg) and xylazine (5 mg/kg). The animals were given buprenorphine (0.01-0.05 mg/kg) for analgesia via a subcutaneous injection. The buprenorphine was administered every twelve hours for seventy-two hours. After induction of anesthesia, the right leg was clipped free of hair using electric animal clippers. The area around the site of surgery was scrubbed with chlorhexidine diacetate, rinsed with alcohol, dried, and painted with an aqueous iodophor solution of 1% available iodine and surgery was prepared using aseptic technique. In the right limb of each animal, the anterior cruciate ligament (ACL) was transected. A medial parapatellar incision was made and the patella was dislocated. The knee was flexed and the ACL visualized. A scalpel blade was positioned behind the ACL and brought anteriorly, thereby cutting the ACL while protecting the posterior cruciate ligament. The patella was returned to the normal anatomic position. The wound was closed in layers.
Following surgery, the animals were left untreated for six weeks. After six weeks, a series of five injections of the test compound were injected intra-articularly once weekly.
The animals were euthanized six weeks after initiation with an intravenous injection of pentobarbital (60 mg/kg). […] Immediately following euthanasia, gross observations of the knee joints were made and any abnormality was recorded. The joints were analyzed for disease state in the trochlear groove, the femoral condyles and the tibial plateau. Pathological assessments were performed on the sectioned tissue. Condylar structure, cellularity, presence of GAG and presence of cartilage were evaluated.
Sterile formulations of the test compounds were prepared by gamma irradiating (15 kGy) them on dry ice. […] All formulations were prepared in an aseptic manner by dispersing the drug into ARTHREASE®. […] The drug was delivered in a volume of 160 μL at a concentration of […]. The low dose was made by diluting with ARTHREASE® to the final concentration.
Ninety-six (96) rabbits underwent ACLT on the right knee (n=ten per group) according to the ACLT model. Anesthesia, analgesia, surgical preparation, surgery, intra-articular injections, and euthanasia were conducted according to the ACLT model.
At the time of sacrifice, the following parameters were evaluated grossly (the scale follows in parenthesis):
Each parameter was given a score. The combination of all parameters gave a Total Score. A higher score indicates more damage to the joint. […] Individual results for each parameter assessed were tabulated. Data for the individual scores is not shown.

[2] = tested on: chondrocytes; type: cell-based
Procedure, shortened: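 Bovine chondrocyte pellets (calf articular cartilage, or alginate-recovered chondrocyte tissue punches) pretreated with compounds 1 h at 37 °C, then incubated 3-5 days with or without 10 ng/ml IL-1β, DMSO ≤1%. Media LDH activity measured colorimetrically via lactate-to-pyruvate conversion reducing INT tetrazolium to formazan.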

[3] = tested on: LPS-induced TNF human peripheral blood mononuclear cells (hPBMC); assay: LPS-induced TNF in hPBMC; type: cell-based
[4] = within the tested concentrations

OCCC#Cc1nc(-c2ccc(F)cc2)c(-c2ccncc2)n1CCCc1ccccc1 [JNJ 3026582 (RWJ 67657), 4-[4-(4-fluorophenyl)-1-(3-phenylpropyl)-5-(4-pyridinyl)-1H-imidazol-2-yl]-3-butyn-1-ol]
All Condylar Effects [1]: no effect
Total Score [1]: Neither JNJ 3026582 (RWJ 67657) nor SCIO-282 (SD 282) had an effect
All Cartilage Effects [1]: no efficacy
lateral femoral condyle surface erosion [1]: no effect
Clinical Scoring - All Cartilage Effects, Mean ([1]; high dose): 9.75
Clinical Scoring - All Condylar Effects, Mean ([1]; high dose): 6.25
Clinical Scoring - All Tibial Plateau Effects, Mean ([1]; high dose): 2.25
Clinical Scoring - Total Score, Mean ([1]; high dose): 16.58
Clinical Scoring - Trochlear Groove Effects, Mean ([1]; high dose): 7.92
Clinical Scoring - All Cartilage Effects, Mean ([1]; low dose): 7.58
Clinical Scoring - All Condylar Effects, Mean ([1]; low dose): 4.71
Clinical Scoring - All Tibial Plateau Effects, Mean ([1]; low dose): 1.63
Clinical Scoring - Total Score, Mean ([1]; low dose): 14.17
Clinical Scoring - Trochlear Groove Effects, Mean ([1]; low dose): 7.75
cytotoxicity to chondrocytes (LDH, words) [2, 4]: little cytoxicity

C[C@H](Nc1nccc(-c2c(-c3ccc(F)cc3)nc3nc(N)ccn23)n1)c1ccccc1 [JNJ 7583979 (RWJ 351958)]
cytotoxicity to chondrocytes (LDH, words) [2, 4]: little cytoxicity

CC(=O)N1CCN(c2c(-c3ccncc3)c(-c3ccc(F)cc3)c(C#N)n2C)CC1 [JNJ 17089540 (RWJ 669307)]
All Condylar Effects [1]: decrease in overall clinical score
Total Score [1]: trended downward
All Cartilage Effects [1]: reduction in scores
lateral femoral condyle surface erosion [1]: efficacious in reducing the clinical score
Clinical Scoring - All Cartilage Effects, Mean ([1]; high dose): 6.21
Clinical Scoring - All Condylar Effects, Mean ([1]; high dose): 3.75
Clinical Scoring - All Tibial Plateau Effects, Mean ([1]; high dose): 2.38
Clinical Scoring - Total Score, Mean ([1]; high dose): 12.46
Clinical Scoring - Trochlear Groove Effects, Mean ([1]; high dose): 6.25
Clinical Scoring - All Cartilage Effects, Mean ([1]; low dose): 5
Clinical Scoring - All Condylar Effects, Mean ([1]; low dose): 2.68
Clinical Scoring - All Tibial Plateau Effects, Mean ([1]; low dose): 1.95
Clinical Scoring - Total Score, Mean ([1]; low dose): 10.41
Clinical Scoring - Trochlear Groove Effects, Mean ([1]; low dose): 5.55
IC50 [3]: 220 nM
cytotoxicity to chondrocytes (LDH, words) [2]: little cytoxicity
